Reference: patent US20260315451A1, “MEDICINE FOR TREATING CANCER” (SCIENCE TECHNOLOGY INTERACT CO., LTD., priority 2022, published 2026)

How the values were obtained:
Type in all cases: cell-based, human
HeLa cells = assay: Cell viability of HeLa cells with siRNA of control, BRCA1 or RAD51 (drug sensitivity test, Presto Blue; Example 1); settings: siRNA of BRCA1 or RAD51, drug added 24 h later, 96 h culture, FIG. 1B/1C
Procedure: HeLa cells (human cervical cancer cell line) were purchased from ATCC (Manassas, VA, USA). HeLa cells were cultured in DMEM medium (Nissui Pharmaceutical Co., Ltd., Tokyo, Japan) supplemented with 8% Fetal Bovine Serum (FBS) (Biowest Inc., Nuaille, France) and 3% L-glutamine at 37° C. in the presence of 5% CO2.
(§1) A stock solution of Nicaraven was prepared by dissolving Nicaraven in DMEM medium at a final concentration of 40 mM and sterilizing the solution through a filter. Olaparib (Adooq Bioscience, Irvine, CA, USA) was prepared as a stock solution of Olaparib in DMSO (FUJIFILM Wako Pure Chemical Corporation, Osaka, Japan) at a final concentration of 50 mM. […]
HeLa cell suspension adjusted to 5000 cells/ml was seeded in a 96 well plate at 100 μl/well, and the next day, siRNA was introduced, followed by addition of Olaparib or Nicaraven. One hundred twenty hours after gene introduction and Olaparib addition, Hela cells were replaced in a medium to which Presto Blue assay (Thermo-Fisher Scientific, Waltham, MA, USA) had been added so as to have a final concentration of 5%, followed by reaction in the presence of 5% CO2 at 37° C. for 1 hour, and then fluorescence was measured under conditions of an excitation wavelength of 520 nm and a fluorescence wavelength of 580 to 640 nm using GloMax (registered trademark) Explorer Multimode Microplate Reader (Promega, Madison, WI, USA). […]

KYSE270 cells = assay: Cell viability of KYSE270 esophageal cancer cells with siRNA of control or RAD51 (Example 5); settings: siRNA of RAD51, drug added 24 h later, 5 days culture, FIG. 6B
Procedure: KYSE270 cells and KYSE30 cells (human esophageal squamous cell carcinoma cell line) were purchased from JCRB Cell Bank, National Institutes of Biomedical Innovation, Health and Nutrition (Osaka, Japan). KYSE270 cells and KYSE30 cells were cultured in a medium in which RPMI1640 and Ham's F12 medium (both of which were manufactured by FUJIFILM Wako Pure Chemical Corporation, Osaka, Japan) were mixed in equal amounts and 5% FBS was added at 37° C. in the presence of 5% CO2.
as §1
FIG. 6A. Protocol of an experiment in which cell viability under Olaparib, Nicaraven or Edaravone treatment on cells having reduced homologous recombination activity was analyzed. siRNA of control or RAD51 was introduced into esophageal cancer cells KYSE270 cells, and 24 hours later, either Olaparib or Nicaraven was added. After 5 days of culture, cell viability was measured.

[1] = system: homologous recombination activity in HeLa cells; assay: Homologous recombination activity (ASHRA, knock-in efficiency by quantitative PCR; Example 2); settings: control cells and cells with BRCA1 and RAD51 expression suppressed; 48 h culture with drug; FIG. 2B
Text: FIG. 5 illustrates an outline of a method for measuring homologous recombination repair (HR) activity (Assay for site-specific HR activity (ASHRA)) performed in Examples. In this method, a CRISPR/Cas9 system used for genome editing as a site-specific DNA cleaving enzyme is used to create a site-specific DNA double strand break in a target endogenous gene. Then, a fusion gene of a reporter and a target gene is generated by HR between a DNA fragment as a substrate for HR containing the reporter and the target endogenous gene. The production efficiency of the fusion gene of a reporter and a target gene is quantified as the HR repair activity of cell in the cell. For the method for detecting a fusion gene, flow cytometry, Western blotting, quantitative PCR, or the like can be used while changing the reporter. Step 1: Introduce Cas9/guide RNA expression vector and donor vector into cells. […] Step 4: Detecting knock-in efficiency of marker ((1) Western blotting, (2) flow cytometry, (3) quantitative PCR). […]
HeLa cells were seeded on a 3.5 cm dish, and the next day, siRNA was introduced. […] Genome quantitative PCR was performed using Go Taq qPCR master mix (Promega, Madison, WI, USA), measurement was done using CFX96 Touch Real-time PCR detection system (BioRad, Hercules, CA, USA), and knock-in efficiency was calculated by ΔΔCt method. […]

[2] = system: γ-H2AX, a marker of DNA double-strand break, in HeLa cells; assay: γ-H2AX intranuclear foci after X-ray irradiation (DNA double-strand break repair, immunostaining; Example 3); settings: drug 30 min before 1.5 Gy X-ray, 24 h after irradiation, FIG. 3
Procedure: After cell seeding, Nicaraven was added. After 30 minutes, the cells were irradiated with 1.5 Gy of X-ray, and after 2 hours and 24 hours, the cells were fixed and immunostained with an anti-γ-H2AX antibody.
Cells in which five or more γ-H2AX intranuclear foci were observed were counted, and the ratio was calculated and represented in a graph. Respective cells in which less than 5, 5 or more and less than 10, 10 or more and less than 20, and 20 or more γ-H2AX intranuclear foci were observed were counted, and the ratio was calculated and represented in a graph (FIG. 3D).

KYSE30 cells = assay: Cell viability of KYSE30 esophageal cancer cells with siRNA of RAD51 (Example 5); settings: siRNA of RAD51, drug added 24 h later, compared with the control, FIG. 7

SMILES	cell viability when expression of BRCA1 and RAD51 was suppressed (HeLa cells)	cell viability when expression of RAD51 is suppressed (KYSE270 cells)	homologous recombination activity [1]	DNA damage remaining (γ-H2AX intranuclear foci), RAD51-suppressed versus control ([2]; RAD51 expression suppressed)	DNA damage remaining (γ-H2AX intranuclear foci), control and RAD51-suppressed cells ([2]; control and RAD51-suppressed)	cell viability in cells in which expression of RAD51 was suppressed (KYSE30 cells)
O=C(c1cc(Cc2n[nH]c(=O)c3ccccc23)ccc1F)N1CCN(C(=O)C2CC2)CC1 [Olaparib, reference compound]	decreased cell viability in cells in which expression of BRCA1 and RAD51 was suppressed, as compared with the control	decreased cell viability in cells in which expression of RAD51 was suppressed, as compared with the control				
CC(CNC(=O)c1cccnc1)NC(=O)c1cccnc1 (centres unmarked) [Nicaraven]	cell viability further decreased	cell viability further decreased	did not affect the homologous recombination ability	DNA damage remained more remarkably in the state in which the expression of RAD51 was suppressed	caused DNA damage to remain in both the control and the state in which the expression of RAD51 was suppressed	cell viability decreased in cells in which expression of RAD51 was suppressed, as compared with the control
